According to patent US7705038B2, “Control of parasites in animals by the use of parasiticidal 2-phenyl-3-(1H-pyrrol-2-yl)acrylonitrile derivatives” (Intervet, Inc., priority 2004, dated 2010):

Assays:
[1] = test system: Haemonchus contortus; assay: Activity against Haemonchus contortus (LD99); settings: dose required to kill 99% of the sample of Haemonchus contortus
Text: (§1) Exemplified compounds of Formula 1 are listed by Tables 1a and 1b, above. The activity of these compounds against Haemonchus contortus and cat fleas (Ctenocephalides felis) is summarized by Table 7, below.
The LD99 value is the dose, expressed as μg/ml, that was required to kill 99% of the sample of Haemonchus contortus.

[2] = test system: cat fleas (Ctenocephalides felis); assay: Contact activity against cat fleas (LC50, % kill); settings: for % Kill: percent of a sample of cat fleas killed at a concentration of 1.26 μg/cm^2; for pest or weed control at 1.26 µg/cm2, 1.26 µg/cm2: Ctenocephalides felis, read-out: % Kill
Text: as §1

SMILES	LD99 [1]	% Kill [2] [%]	EC99 [1] [µg/mL]	pest or weed control at 1.26 µg/cm2, 1.26 µg/cm2 [2] [%]
N#C/C(=C\c1ccc[nH]1)c1ccccc1Br [Compound 38]	3.25 µg/mL	30		
N#C/C(=C\c1ccc[nH]1)c1cccc(Br)c1 [Compound 39]	0.938 µg/mL	24		
N#C/C(=C\c1ccc[nH]1)c1ccc([N+](=O)[O-])cc1 [Compound 40]	— (the symbol ‘—’ indicates tested but inactive up to 15 μg/ml)	6		
N#C/C(=C\c1ccc[nH]1)c1ccc(F)c(F)c1 [Compound 47]	0.75 µg/mL	17		
N#C/C(=C\c1ccc[nH]1)c1ccc(Cl)cc1F [Compound 48]	2.5 µg/mL	5		
CCOCn1cccc1/C=C(\C#N)c1ccccc1F [Compound 55]	— (the symbol ‘—’ indicates tested but inactive up to 15 μg/ml)	10		
CCOCn1cccc1/C=C(\C#N)c1ccc(F)cc1F [Compound 60]	— (the symbol ‘—’ indicates tested but inactive up to 15 μg/ml)	19		
CCOCn1cccc1/C=C(\C#N)c1ccc(C)cc1 [Compound 64]	— (the symbol ‘—’ indicates tested but inactive up to 15 μg/ml)	20		
N#C/C(=C\c1ccc[nH]1)c1ccc2ccccc2c1 [Compound 66, 2-(2-naphthyl)-3-(1H-pyrrol-2-yl)acrylonitrile]			2.5	28
N#C/C(=C\c1ccc[nH]1)c1c(F)cccc1Cl [Compound 67]	— (the symbol ‘—’ indicates tested but inactive up to 15 μg/ml)	7		
N#C/C(=C\c1ccc[nH]1)c1cc(C(F)(F)F)cc(C(F)(F)F)c1 [Compound 68]	— (the symbol ‘—’ indicates tested but inactive up to 15 μg/ml)	27		
N#C/C(=C\c1ccc[nH]1)c1ccc(F)cc1F [Compound 69]	2.5 µg/mL	5		
N#C/C(=C\c1ccc[nH]1)c1c(F)cccc1F [Compound 70]	7.5 µg/mL	17		
N#C/C(=C\c1ccc[nH]1)c1cccc(Oc2ccccc2)c1 [Compound 71]	3.25 µg/mL	10		
Cc1cccc(/C(C#N)=C/c2ccc[nH]2)c1 [Compound 72]	1.25 µg/mL	42		
N#C/C(=C\c1ccc[nH]1)c1ccc(F)c(Br)c1 [Compound 73]	0.469 µg/mL	7		
N#C/C(=C\c1ccc[nH]1)c1ccc(F)cc1Cl [Compound 74]	3 µg/mL	30		
CCc1ccc(/C(C#N)=C/c2ccc[nH]2)cc1 [Compound 75]	0.875 µg/mL	58		
CCC(=O)n1cccc1/C=C(\C#N)c1ccc(Cl)cc1 [Compound 76, (Z)-2-(4-Chlorophenyl)-3-(1-propanoyl-1H-pyrrol-2-yl)acrylonitrile]			0.375	12
N#C/C(=C\c1cccn1Cc1ccccc1)c1ccc(Cl)cc1 [Compound 77]	14 µg/mL	3		
CCN(CC)C(=O)n1cccc1/C=C(\C#N)c1ccc(Cl)cc1 [Compound 78]	3.5 µg/mL	8		
CC(C)(C)OC(=O)n1cccc1/C=C(\C#N)c1ccc(Cl)cc1 [Compound 79]	3.75 µg/mL	9		
N#C/C(=C\c1ccc[nH]1)c1ccc(F)c(Cl)c1 [Compound 81]	1.25 µg/mL	5		
N#C/C(=C\c1cccn1C(=O)c1ccccc1)c1ccc(Cl)cc1 [Compound 82]	1.25 µg/mL	6		
CN(C)C(=S)n1cccc1/C=C(\C#N)c1ccc(Cl)cc1 [Compound 84]	10 µg/mL	19		
COC(=O)n1cccc1/C=C(\C#N)c1ccc(Cl)cc1 [Compound 85]	1.25 µg/mL	16		
N#C/C(=C\c1cccn1C(=O)OCc1ccccc1)c1ccc(Cl)cc1 [Compound 86]	5.5 µg/mL	20		
CC(C)c1ccc(/C(C#N)=C/c2ccc[nH]2)cc1 [Compound 87]	— (the symbol ‘—’ indicates tested but inactive up to 15 μg/ml)	100		
Cc1ccc(/C(C#N)=C/c2ccc[nH]2)c(C)c1 [Compound 88]	— (the symbol ‘—’ indicates tested but inactive up to 15 μg/ml)	44		
